These results are taken from paper PMC8032764 (Scientific Reports, 2021).

Read-outs that look alike come from different tables or passages of the source.

The target of series [1] is T1, GABAA-α5 receptors (Rattus norvegicus, UniProt P18508+P19969).
T1 construct: from tissue; host or cells: rat brain (hippocampus), in vivo with ex vivo autoradiography
Nature of the series: In vivo [3H]-Ro 15-4513 binding with ex vivo autoradiography (receptor occupancy). Conditions: hippocampus, Hill fit. On the procedure:
Brains and blood were collected from each animal. Brains were divided in two halves along their sagittal axis and frozen in dry ice. […] Half of the brain was used for autoradiography, as described earlier. […] The percentage of receptor occupancy (y) was calculated from: y=1001-Sbasmisanil/Svehicle.
The curve was fitted to the experimental results using the Hill equation (Eq. (1) with Hill coefficient D = 1).

Series [2] concerns T2, Angiotensin AT2.
T2 construct: purchased Eurofins Cerep
The series can be described thus: Cerep binding. More on the design: species or system human. Conditions: 10 μM; [125I]CGP 42112A; hum. recomb. (CHO).

The nature of series [3]: Plasma levels, PTZ test. Type of series: in vivo, rat. The procedure: Following tonic convulsions, rats were immediately euthanized by decapitation. All other rats were euthanized by decapitation at the end of the 30 min observation period. Plasma samples were collected and frozen at − 80 °C for analysis of drug content.
The calibration range was from 1.0 to 5000 ng/mL. After protein precipitation with ethanol, the sample solution was injected onto a Gemini C18 trapping column (2 × 10 mm; Phenomenex, Torrance, CA, USA) and polar endogenous compounds and salts were rinsed off. Analytical separation was performed on an Atlantis T3 column (2.1 × 50 mm) (Waters, Milford, MA, USA), using methanol/water containing 0.1% formic acid as mobile phase. A drug analogue was used as an internal standard.

Series [4] concerns T3, Serotonin 5-HT2C.
T3 construct: purchased Eurofins Cerep
Nature of the series: Cerep binding. Further details: species or system human. Conditions: 10 μM; [3H]mesulergine; hum. recomb. (CHO).

Series [5] in a line: Pharmacokinetics, single intravenous dosing. It counts as in vivo, NHP, Cynomolgus macaque. Conditions: cynomolgus monkey, plasma, 1.0 mg/kg i.v.
Series [6] relates to T4, Serotonin 5-HT2B.
T4 construct: purchased Eurofins Cerep
The series can be described thus: Cerep binding. Conditions: 10 μM; [125I](±)DOI; hum. recomb. (CHO). More on the design: species or system human.

Series [7] relates to Sigma (non-selective). Nature of the series: Cerep binding. Conditions: 10 μM; [3H]DTG; rat cerebral cortex.
Series [8] relates to T5, human GABAA α2β3γ2.
T5 construct: expressed in transfected cells; host or cells: Xenopus laevis oocytes, cRNA injection
Nature of the series: Two-electrode voltage clamp in Xenopus oocytes, current induced by EC10 of GABA. It counts as cell-based. Conditions: 3000 nM. On the procedure: (§1) Freshly prepared oocytes of maturation stage VI were bought from Ecocyte Bioscience (Castrop-Rauxel, Germany) and, after overnight delivery, plated into 96-well plates (Greiner no. 651101) for microinjection on a ROBOOCYTE R16 system (Multichannel Systems MCS GmbH, Reutlingen, Germany). Each oocyte was injected with roughly 50 nL of RNA solution. The solution for expressing receptors composed of the human α1, β2 and γ2 subunits contained 3 pg/nL of α1 and β2 RNA and 15 pg/nL of γ2 RNA. The solution for expressing human α2β3γ2 receptors contained 2.5 pg/nL of α2 and β3 RNA, 5 pg/nL of γ2 RNA and 10 pg/nL of GABARAP RNA. The solution for expressing human α3β3γ2 receptors contained 1.3 pg/nL of α3 and β3 RNA and 6.5 pg/nL of γ2 RNA. The solution for expressing human α5β3γ2 receptors contained 1.3 pg/nL of α5 and β3 RNA and 13 pg/nL of γ2 RNA. GABARAP was added to the α2β3γ2 subunit mixture since the expression of γ2 would be low otherwise, as indicated by a weak effect of β-CCM[60]. After the microinjection the oocytes were kept at 20 °C temperature until the electrophysiological experiment. Experiments were done 3 to 5 days later on the ROBOOCYTE instrument which employs the two-microelectrode voltage-clamp technique for membrane voltage control and current measurement. […] During current recording and compound testing the cell membrane was constantly clamped to − 80 mV. Current signals were recorded and stored on a PC-type computer using the ROBOOCYTE software.
(§2) During the microinjection and up to the electrophysiological experiment the oocytes were kept in a solution containing 88 mM NaCl, 1 mM KCl, 2.5 mM NaHCO3, 10 mM HEPES (AppliChem GmbH, Darmstadt, Germany), 0.82 MgSO4, 0.33 mM Ca(NO3)2, 0.33 mM CaCl2, 100 U/mL penicillin (GIBCO, ThermoFisher Scientific) and 100 µg/mL streptomycine (GIBCO, ThermoFisher Scientific). The pH was adjusted to 7.5. During the experiment the voltage-clamped oocyte was constantly superfused by a solution containing 90 mM NaCl, 1 mM KCl, 5 mM HEPES (AppliChem), 1 mM MgCl2 and 1 mM CaCl2 (pH 7.4). GABA and test compounds were added to this solution. GABA concentrations were chosen according to previously determined concentration–response relations for the different human GABAA receptor subunit combinations. Concentrations evoking approximately 10% of a maximal response were selected, i.e., 8 µM for α1β2γ2, 6 µM for α2β3γ2, 10 µM for α3β3γ2 and 5 µM for α5β3γ2. Solutions containing GABA or test compounds were freshly prepared at least every second day. […] Compounds were further diluted in DMSO and finally in extracellular saline to reach a DMSO concentration of 0.1%. The same amount of DMSO was added to the control solutions without test compounds. […]

The test system of series [9] is T6, human GABAA α1β2γ2.
T6 construct: expressed in transfected cells; host or cells: Xenopus laevis oocytes, cRNA injection
The description is as above. Type of series: cell-based. Conditions: 3000 nM. On the procedure: as §1, §2

Series [10] relates to T7, human GABAA α3β3γ2.
T7 construct: expressed in transfected cells; host or cells: Xenopus laevis oocytes, cRNA injection
Described as above. Type of series: cell-based. Conditions: 3000 nM. The procedure:
as §1, §2

T1 sequence (P19969 32-464 limits assumed): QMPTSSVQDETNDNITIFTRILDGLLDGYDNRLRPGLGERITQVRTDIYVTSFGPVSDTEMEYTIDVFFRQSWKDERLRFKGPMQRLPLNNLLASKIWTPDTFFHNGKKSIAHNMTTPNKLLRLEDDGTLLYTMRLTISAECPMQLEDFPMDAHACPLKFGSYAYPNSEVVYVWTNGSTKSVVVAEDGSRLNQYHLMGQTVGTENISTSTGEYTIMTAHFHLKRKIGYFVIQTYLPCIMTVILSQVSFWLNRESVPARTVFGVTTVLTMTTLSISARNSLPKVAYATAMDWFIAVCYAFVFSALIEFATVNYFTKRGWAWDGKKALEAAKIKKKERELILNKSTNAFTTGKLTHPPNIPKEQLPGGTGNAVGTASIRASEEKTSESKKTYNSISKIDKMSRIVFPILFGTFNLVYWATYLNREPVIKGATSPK
T1 sequence (P18508 39-466): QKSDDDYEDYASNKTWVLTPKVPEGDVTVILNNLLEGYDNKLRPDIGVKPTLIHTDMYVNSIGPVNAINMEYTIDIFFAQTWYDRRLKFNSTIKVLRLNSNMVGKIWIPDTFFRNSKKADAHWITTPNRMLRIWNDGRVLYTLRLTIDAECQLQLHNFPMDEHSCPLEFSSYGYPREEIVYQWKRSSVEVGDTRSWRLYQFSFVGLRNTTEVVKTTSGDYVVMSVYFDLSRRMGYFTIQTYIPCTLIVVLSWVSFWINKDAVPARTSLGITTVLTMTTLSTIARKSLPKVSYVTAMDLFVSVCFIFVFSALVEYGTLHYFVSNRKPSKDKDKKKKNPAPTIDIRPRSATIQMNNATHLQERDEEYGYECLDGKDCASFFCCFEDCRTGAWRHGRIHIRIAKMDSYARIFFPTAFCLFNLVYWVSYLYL
T1 sequence (P63079 26-473 partner): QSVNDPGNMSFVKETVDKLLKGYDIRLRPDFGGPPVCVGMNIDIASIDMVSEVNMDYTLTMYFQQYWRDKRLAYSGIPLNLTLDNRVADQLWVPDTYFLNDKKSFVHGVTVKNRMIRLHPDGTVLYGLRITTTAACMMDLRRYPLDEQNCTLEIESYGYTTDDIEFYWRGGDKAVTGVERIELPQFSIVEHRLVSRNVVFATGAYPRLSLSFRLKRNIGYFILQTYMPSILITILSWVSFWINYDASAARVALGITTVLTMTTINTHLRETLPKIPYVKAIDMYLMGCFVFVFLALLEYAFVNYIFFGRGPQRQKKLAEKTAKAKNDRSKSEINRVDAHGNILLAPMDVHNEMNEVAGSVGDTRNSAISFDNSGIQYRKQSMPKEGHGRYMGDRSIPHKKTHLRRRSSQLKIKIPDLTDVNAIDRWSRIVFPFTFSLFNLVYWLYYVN

By % Inhibition is commonly meant the change of the read-out against control, counted positive when it falls. For orientation: half-life means how long it takes for the measured level to halve. The low end stands for fast loss, the high end for slow loss. As a reminder, the inhibition is the drop in the measured response relative to a control, in per cent. In the case of `Cc1onc(-c2ccc(F)cc2)c1COc1ccc(C(=O)N2CCS(=O)(=O)CC2)cn1` [basmisanil], the EC50 was 171 ± 16 nM in series [1] (free plasma, read-out: free plasma concentration for half-maximal receptor occupancy (EC50)) and 1220 nM in [1] (total plasma, read-out: plasma level for half-maximal receptor occupancy (EC50) (converted)). Further, the “% Inhibition” value in series [2] is given as -3%; in series [4], 10%; in series [6], 31%; in series [7] it was 58%. Also, the free plasma concentration in [3] (female rats, 30 mg/kg) turned out to be 2452 nM; in series [3] (female rats, 100 mg/kg), 5079 nM; in series [3] (male rats, 100 mg/kg), 1622 nM. In series [5] (n=3), this molecule had a half-life of 4.5 ± 1.8 h. For the same molecule, the clearance in [5] (n=3, read-out: Total CL) amounted to 3 ± 0.7 mL/min/kg. The Vd in series [5] (n=3, read-out: Vss) amounted to 0.9 ± 0.6 L/kg. Moreover, the inhibition in [8], in series [9] and in [10] was under 10% throughout.
